Target: GABA-A receptors
Assay: GABA-A Agonist binding assay (NovaScreen), [3H]-GABA displacement
Parameters: species or system bovine
Details: converted from μg/ml; read-out: IC50 for paeoniflorin converted to molarity
Protocol: These GABA-A Agonist assays were conducted by NovaScreen Biosciences Corporation (Hanover, Md.) and are described in Falch E., et al., 1986. […] 47(3): 898-903 and Enna S. J., et al., 1977.
(§1) In particular, the GABA-A Agonist binding assays use bovine cerebellar membranes as the source of GABA-A receptors. GABA-A, radio labeled with tritium (^3H), is used as both the reference compound and positive control.
The bovine cerebellar membranes are exposed to both [^3H]-GABA and extracts of the desired test substance. In this instance, the bovine cerebellar membranes were exposed to: six extracts of white peony root at concentrations of 0.01, 0.03, 0.1, 0.3, 1, 3, and 10 μg/ml. The GABA-A Agonist assay measures how much radio labeled GABA-A binds to the GABA-A receptors present in the bovine cerebellar membranes.
The results of the GABA-A Agonist binding assays are shown in FIGS. 19-24 and are expressed below in Table I as IC50 in μg/ml.
as §1, with “control. The bovine cerebellar membranes are exposed to both [^3H]-GABA and extracts of the desired test substance. […]” for “control.”

C[C@@]12C[C@@]3(O)O[C@@H](O1)[C@]1(COC(=O)c4ccccc4)[C@H]3C[C@@]12O[C@@H]1O[C@H](CO)[C@@H](O)[C@H](O)[C@H]1O [paeoniflorin]
IC50: ~0.625 µM

Source: US20060275520A1, “White peony extract for improving the duration and quality of sleep” (Access Business Group International LLC, priority 2005, published 2006)
